From ChEMBL document CHEMBL5291721, “A preclinical secondary pharmacology resource illuminates target-adverse drug reaction associations of marketed drugs” (Nat Commun, 2023) come the findings set out here.

In test [1] the target is Prostaglandin G/H synthase 1 (Homo sapiens, UniProt P23219). In kind it is functional.
The target of test [2] is T1, Alpha-1A adrenergic receptor (Homo sapiens, UniProt P35348).
T1 sequence (P35348 whole entry): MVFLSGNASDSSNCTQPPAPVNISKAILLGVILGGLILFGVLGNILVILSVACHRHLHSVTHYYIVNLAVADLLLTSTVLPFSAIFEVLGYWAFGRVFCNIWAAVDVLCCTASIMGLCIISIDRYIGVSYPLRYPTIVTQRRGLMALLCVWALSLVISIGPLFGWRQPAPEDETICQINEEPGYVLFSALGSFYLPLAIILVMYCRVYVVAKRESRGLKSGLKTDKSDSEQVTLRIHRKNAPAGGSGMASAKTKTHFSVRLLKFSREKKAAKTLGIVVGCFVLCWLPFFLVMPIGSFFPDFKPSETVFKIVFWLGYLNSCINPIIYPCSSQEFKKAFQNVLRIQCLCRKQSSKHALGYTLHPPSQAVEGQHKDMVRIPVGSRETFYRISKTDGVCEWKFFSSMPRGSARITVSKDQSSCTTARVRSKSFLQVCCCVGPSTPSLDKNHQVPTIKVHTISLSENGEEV
In kind it is functional, cell-based.

For test [3], the target named is 3',5'-cyclic-AMP phosphodiesterase 4A (Homo sapiens, UniProt P27815). In kind it is functional.
For the next test, the target named is T2, Estrogen receptor (Homo sapiens, UniProt P03372).
T2 sequence (P03372 whole entry): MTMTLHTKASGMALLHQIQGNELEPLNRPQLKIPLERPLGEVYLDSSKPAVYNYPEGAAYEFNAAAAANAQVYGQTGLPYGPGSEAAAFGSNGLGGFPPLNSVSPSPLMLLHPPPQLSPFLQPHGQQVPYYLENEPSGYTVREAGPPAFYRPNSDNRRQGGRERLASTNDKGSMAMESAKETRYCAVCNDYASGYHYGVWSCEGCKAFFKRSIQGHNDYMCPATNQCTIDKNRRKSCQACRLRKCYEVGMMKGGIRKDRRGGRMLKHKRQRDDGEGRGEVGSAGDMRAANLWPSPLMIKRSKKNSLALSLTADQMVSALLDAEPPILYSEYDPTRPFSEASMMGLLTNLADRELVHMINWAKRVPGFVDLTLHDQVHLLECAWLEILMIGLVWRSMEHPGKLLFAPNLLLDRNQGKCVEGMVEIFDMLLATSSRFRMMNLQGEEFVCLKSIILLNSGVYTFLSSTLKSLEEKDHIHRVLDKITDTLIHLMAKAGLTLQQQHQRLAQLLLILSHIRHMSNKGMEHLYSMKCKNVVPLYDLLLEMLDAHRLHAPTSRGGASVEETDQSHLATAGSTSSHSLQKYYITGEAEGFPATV

For test [4], the target named is Sodium-dependent noradrenaline transporter (Homo sapiens, UniProt P23975).
For a further test, the target named is T3, Progesterone receptor (Homo sapiens, UniProt P06401).
T3 sequence (P06401 whole entry): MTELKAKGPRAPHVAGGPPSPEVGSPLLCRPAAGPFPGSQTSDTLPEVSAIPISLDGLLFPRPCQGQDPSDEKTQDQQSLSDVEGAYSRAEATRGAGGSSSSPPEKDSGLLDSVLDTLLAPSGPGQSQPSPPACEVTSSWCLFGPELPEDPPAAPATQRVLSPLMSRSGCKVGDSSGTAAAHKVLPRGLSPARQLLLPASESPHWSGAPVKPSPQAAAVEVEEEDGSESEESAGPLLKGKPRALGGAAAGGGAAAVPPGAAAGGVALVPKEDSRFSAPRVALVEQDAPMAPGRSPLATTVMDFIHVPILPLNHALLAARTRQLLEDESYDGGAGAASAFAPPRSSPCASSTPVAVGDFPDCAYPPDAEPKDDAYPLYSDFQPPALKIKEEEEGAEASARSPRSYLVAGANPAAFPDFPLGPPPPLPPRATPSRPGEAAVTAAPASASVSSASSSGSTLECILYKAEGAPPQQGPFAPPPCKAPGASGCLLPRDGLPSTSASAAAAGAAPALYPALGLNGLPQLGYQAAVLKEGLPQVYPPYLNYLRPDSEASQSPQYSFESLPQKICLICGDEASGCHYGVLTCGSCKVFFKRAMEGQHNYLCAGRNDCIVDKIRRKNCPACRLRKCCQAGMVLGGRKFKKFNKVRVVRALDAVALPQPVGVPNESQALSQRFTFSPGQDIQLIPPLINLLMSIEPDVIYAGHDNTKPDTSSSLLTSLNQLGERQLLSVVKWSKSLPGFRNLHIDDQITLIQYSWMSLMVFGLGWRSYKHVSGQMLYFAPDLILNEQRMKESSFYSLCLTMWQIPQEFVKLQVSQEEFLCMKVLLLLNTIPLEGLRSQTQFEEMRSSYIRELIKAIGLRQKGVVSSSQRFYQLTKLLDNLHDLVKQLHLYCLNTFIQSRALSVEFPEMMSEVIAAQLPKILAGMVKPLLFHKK

Test [5] concerns the target T4, Amine oxidase [flavin-containing] A (Homo sapiens, UniProt P21397).
T4 sequence (P21397 whole entry): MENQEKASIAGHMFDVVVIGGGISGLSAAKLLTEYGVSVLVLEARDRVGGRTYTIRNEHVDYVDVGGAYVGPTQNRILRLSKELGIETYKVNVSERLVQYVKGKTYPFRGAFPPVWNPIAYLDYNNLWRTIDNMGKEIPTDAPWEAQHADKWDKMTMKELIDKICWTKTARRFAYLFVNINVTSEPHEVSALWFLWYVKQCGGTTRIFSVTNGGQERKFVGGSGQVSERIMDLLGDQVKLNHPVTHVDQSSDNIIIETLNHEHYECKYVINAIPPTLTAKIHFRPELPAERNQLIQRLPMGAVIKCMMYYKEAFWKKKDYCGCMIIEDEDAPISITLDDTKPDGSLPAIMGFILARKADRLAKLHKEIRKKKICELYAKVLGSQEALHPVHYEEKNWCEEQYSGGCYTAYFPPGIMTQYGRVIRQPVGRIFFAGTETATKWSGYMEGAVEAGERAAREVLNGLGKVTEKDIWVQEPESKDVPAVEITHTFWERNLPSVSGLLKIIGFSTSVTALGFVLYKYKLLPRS
In kind it is functional.
Further: assay procedure not described here.

Chain of 3',5'-cyclic-AMP phosphodiesterase 4A (P27815 whole entry): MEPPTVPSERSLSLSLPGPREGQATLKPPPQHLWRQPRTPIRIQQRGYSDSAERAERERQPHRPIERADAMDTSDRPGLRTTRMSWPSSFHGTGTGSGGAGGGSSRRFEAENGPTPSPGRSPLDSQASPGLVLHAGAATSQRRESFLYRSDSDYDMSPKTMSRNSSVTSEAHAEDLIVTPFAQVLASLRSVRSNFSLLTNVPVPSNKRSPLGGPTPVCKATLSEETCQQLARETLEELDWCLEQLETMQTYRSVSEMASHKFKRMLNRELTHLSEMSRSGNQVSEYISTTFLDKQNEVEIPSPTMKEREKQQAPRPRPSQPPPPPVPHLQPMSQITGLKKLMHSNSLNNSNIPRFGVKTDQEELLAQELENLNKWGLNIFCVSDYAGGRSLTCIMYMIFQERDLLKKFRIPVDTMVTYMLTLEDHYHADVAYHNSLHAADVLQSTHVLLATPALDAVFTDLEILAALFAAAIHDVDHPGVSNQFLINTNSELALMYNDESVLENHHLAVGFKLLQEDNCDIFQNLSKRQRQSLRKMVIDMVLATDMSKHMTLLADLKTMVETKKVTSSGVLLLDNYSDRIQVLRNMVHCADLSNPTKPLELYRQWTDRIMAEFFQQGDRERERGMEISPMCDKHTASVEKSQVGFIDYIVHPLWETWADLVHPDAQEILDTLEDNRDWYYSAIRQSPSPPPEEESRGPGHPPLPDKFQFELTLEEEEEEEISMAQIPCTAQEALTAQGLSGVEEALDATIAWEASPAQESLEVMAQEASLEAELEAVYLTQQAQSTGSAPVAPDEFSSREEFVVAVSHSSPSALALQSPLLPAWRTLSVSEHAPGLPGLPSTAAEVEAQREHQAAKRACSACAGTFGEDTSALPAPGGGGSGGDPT
Chain of Sodium-dependent noradrenaline transporter (P23975 whole entry): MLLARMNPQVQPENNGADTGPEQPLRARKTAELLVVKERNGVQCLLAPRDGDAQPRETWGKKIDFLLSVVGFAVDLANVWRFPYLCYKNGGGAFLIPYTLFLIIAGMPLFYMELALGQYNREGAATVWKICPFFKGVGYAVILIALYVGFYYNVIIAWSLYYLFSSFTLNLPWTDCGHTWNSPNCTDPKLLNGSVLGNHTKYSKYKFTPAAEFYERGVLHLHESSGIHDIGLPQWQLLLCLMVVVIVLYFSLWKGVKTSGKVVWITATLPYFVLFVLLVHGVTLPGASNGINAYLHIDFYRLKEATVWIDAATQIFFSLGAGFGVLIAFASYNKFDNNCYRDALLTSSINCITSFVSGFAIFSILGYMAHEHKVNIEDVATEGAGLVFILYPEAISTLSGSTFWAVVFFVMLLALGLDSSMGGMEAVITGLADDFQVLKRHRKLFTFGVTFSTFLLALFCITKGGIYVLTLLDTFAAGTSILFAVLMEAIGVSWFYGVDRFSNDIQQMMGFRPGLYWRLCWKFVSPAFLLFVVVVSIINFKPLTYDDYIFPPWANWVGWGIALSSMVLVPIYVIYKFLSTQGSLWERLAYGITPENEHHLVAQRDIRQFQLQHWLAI
Chain of Prostaglandin G/H synthase 1 (P23219 whole entry): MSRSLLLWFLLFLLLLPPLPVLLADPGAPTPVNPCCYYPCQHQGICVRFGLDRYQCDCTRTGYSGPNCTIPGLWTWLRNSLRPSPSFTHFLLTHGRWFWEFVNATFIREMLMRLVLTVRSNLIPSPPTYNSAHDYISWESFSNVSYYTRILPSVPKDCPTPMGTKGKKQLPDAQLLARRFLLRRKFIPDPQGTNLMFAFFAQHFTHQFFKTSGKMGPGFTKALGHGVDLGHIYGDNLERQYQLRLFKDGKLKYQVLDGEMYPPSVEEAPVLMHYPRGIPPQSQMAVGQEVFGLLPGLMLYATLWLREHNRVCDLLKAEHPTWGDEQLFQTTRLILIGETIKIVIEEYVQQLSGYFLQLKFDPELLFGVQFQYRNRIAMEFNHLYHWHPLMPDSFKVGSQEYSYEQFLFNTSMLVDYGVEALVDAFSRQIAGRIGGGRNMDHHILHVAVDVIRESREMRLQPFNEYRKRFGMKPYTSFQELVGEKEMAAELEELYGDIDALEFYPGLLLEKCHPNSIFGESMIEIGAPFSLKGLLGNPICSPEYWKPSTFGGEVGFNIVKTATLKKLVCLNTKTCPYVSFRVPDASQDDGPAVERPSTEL

Take `NC(=O)NCCC[C@H](N)C(=O)O` [L-CITRULLINE]: the AC50 (in test [1]; in test [2]; in test [3]; at Estrogen receptor; in test [4]; at Progesterone receptor) was greater than 30 µM each time. Besides, in test [5], the AC50 is greater than 30 µM.

Turning to `CC(=O)O[C@H]1C[C@H](O[C@H]2[C@@H](O)C[C@H](O[C@H]3[C@@H](O)C[C@H](O[C@H]4CC[C@@]5(C)[C@H](CC[C@@H]6[C@@H]5C[C@@H](O)[C@]5(C)[C@@H](C7=CC(=O)OC7)CC[C@]65O)C4)O[C@@H]3C)O[C@@H]2C)O[C@H](C)[C@H]1O[C@@H]1O[C@H](CO)[C@@H](O)[C@H](O)[C@H]1O` [LANATOSIDE C], the AC50 (in test [1]; in test [2]; in test [3]; at Estrogen receptor; in test [4]; at Progesterone receptor) was greater than 30 µM throughout. In test [5], the AC50 was greater than 30 µM.

On to `Nc1nc(N)nc(Nc2ccc([As]3SCC(CO)S3)cc2)n1` (stereo not drawn) [MELARSOPROL], for which the half-maximal activity concentration (AC50) was 23.5 µM in test [1]; greater than 30 µM in test [2]; 14.5 µM in test [3]; greater than 30 µM on Estrogen receptor; greater than 30 µM in test [4]; greater than 30 µM at Progesterone receptor. The AC50 in test [5] is greater than 30 µM.

In the case of `CO[C@H]1[C@@H](O)C[C@H](O[C@H]2[C@@H](O)C[C@H](O[C@H]3[C@@H](O)C[C@H](O[C@H]4CC[C@@]5(C)[C@H](CC[C@@H]6[C@@H]5C[C@@H](O)[C@]5(C)[C@@H](C7=CC(=O)OC7)CC[C@]65O)C4)O[C@@H]3C)O[C@@H]2C)O[C@@H]1C` [METILDIGOXIN], the AC50 (in test [1]; in test [2]; in test [3]; at Estrogen receptor; in test [4]; at Progesterone receptor) was greater than 30 µM throughout. This compound also showed an AC50 in test [5] greater than 30 µM.

As for `CC1(C)S[C@@H]2[C@H](NC(=O)[C@H](NC(=O)N3CCN(S(C)(=O)=O)C3=O)c3ccccc3)C(=O)N2[C@H]1C(=O)O` [MEZLOCILLIN], the AC50 (in test [1]; in test [2]; in test [3]; on Estrogen receptor; in test [4]; on Progesterone receptor) was greater than 30 µM in each case. The compound also returned an AC50 in test [5] greater than 30 µM.

Regarding `CCOC(=O)[C@H](CCc1ccccc1)N[C@@H](C)C(=O)N1Cc2cc(OC)c(OC)cc2C[C@H]1C(=O)O` [MOEXIPRIL], the AC50 (in test [1]; in test [2]; in test [3]; on Estrogen receptor; in test [4]; at Progesterone receptor) was greater than 30 µM each time. The compound further showed an AC50 in test [5] greater than 30 µM.

On to `CC(c1ccc(Cl)c(Cl)c1)N1N=C(N)CC1=O` (stereo not drawn) [MUZOLIMINE], for which the AC50 is 13.3 µM in test [1]; greater than 30 µM in test [2]; greater than 30 µM in test [3]; greater than 30 µM on Estrogen receptor; greater than 30 µM in test [4]; greater than 30 µM at Progesterone receptor. This compound also displayed an AC50 in test [5] greater than 30 µM.

For `N[C@@H](Cc1c[nH]c2ccc(O)cc12)C(=O)O` [OXITRIPTAN], the AC50 (in test [1]; in test [2]; in test [3]; on Estrogen receptor; in test [4]; on Progesterone receptor) was greater than 30 µM throughout. The AC50 in test [5] is greater than 30 µM.

Turning to `CNC(=O)Oc1ccc2c(c1)[C@]1(C)CCN(C)[C@@H]1N2C` [PHYSOSTIGMINE], the AC50 in test [1] was 4.3 µM; in test [2] it was greater than 30 µM; in test [3], greater than 30 µM; on Estrogen receptor it was greater than 30 µM; in test [4] it was greater than 30 µM; on Progesterone receptor, greater than 30 µM. In test [5], this compound returned an AC50 greater than 30 µM.

With `C1CNCCN1` [PIPERAZINE], the AC50 in test [1] is greater than 30 µM; in test [2] it was greater than 30 µM; in test [3], 28.4 µM; on Estrogen receptor it was greater than 30 µM; in test [4], greater than 30 µM; on Progesterone receptor it was greater than 30 µM. In test [5], this compound returned an AC50 greater than 30 µM.

Turning to `c1cc(CN2CCCNCCNCCCNCC2)ccc1CN1CCCNCCNCCCNCC1` [PLERIXAFOR], the AC50 (in test [1]; in test [2]; in test [3]; at Estrogen receptor; in test [4]; at Progesterone receptor) was greater than 30 µM each time. Also, the AC50 in test [5] was greater than 30 µM.

As to `O=C(NC(Cc1cc(=O)[nH]c2ccccc12)C(=O)O)c1ccc(Cl)cc1` (stereo not drawn) [REBAMIPIDE], the AC50 (in test [1]; in test [2]; in test [3]; on Estrogen receptor; in test [4]; at Progesterone receptor) was greater than 30 µM each time. Also, the AC50 in test [5] is greater than 30 µM.

In the case of `CCCC(=O)O[C@H]1[C@H](C)O[C@@H](O[C@H]2[C@H](N(C)C)[C@@H](O)[C@H](O[C@H]3[C@@H](CC=O)C[C@@H](C)[C@@H](O)/C=C/C=C/C[C@@H](C)OC(=O)C[C@@H](O)[C@@H]3OC)O[C@@H]2C)C[C@@]1(C)OC(=O)CC` [ROKITAMYCIN], the AC50 (in test [1]; in test [2]; in test [3]; at Estrogen receptor; in test [4]; at Progesterone receptor) was greater than 30 µM each time. The AC50 in test [5] was greater than 30 µM.

Consider `CCCCCCCCCCCCCCCCCC(=O)NCCCC[C@H](NC(=O)CC[C@@H](NC(=O)[C@H](C)NC(=O)[C@@H](C)O[C@H]1[C@H](O)[C@@H](CO)OC(O)[C@@H]1NC(C)=O)C(N)=O)C(=O)O` (stereo partly drawn) [ROMURTIDE], for which the AC50 in test [1] is greater than 30 µM; in test [2], 13.3 µM; in test [3] it was greater than 3 µM; at Estrogen receptor, 22.2 µM; in test [4], greater than 30 µM; at Progesterone receptor, 2.94 µM. Besides, the AC50 in test [5] is greater than 30 µM.

Broadly, the AC50 is the concentration giving half of the maximal activity seen. Low readings indicate activity at low concentration, high ones activity only at high concentration.
